The results in this text go back to patent publication US20250100968A1, “BICYCLIC-HETEROCYCLE DERIVATIVES AND RELATED USES” (CENTESSA PHARMACEUTICALS (UK) LIMITED, priority 2022, published 2025).

pEC50: −log10 of the molar value.

Usually pEC50 stands for the negative decadic logarithm of the EC50, by convention in mol/L. A high value points to a low EC50.
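Note: agonist activity in CHO cells stably expressing hOX2R, intracellular Ca2+ via Calcium 5 dye fluorescence area over 2 min, buffer-only as 0% and 10 nM orexin A as 100%.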

The target in this test is T1, human orexin type 2 receptor (hOX2R) (Homo sapiens, UniProt O43614).
T1 sequence (O43614 1-444): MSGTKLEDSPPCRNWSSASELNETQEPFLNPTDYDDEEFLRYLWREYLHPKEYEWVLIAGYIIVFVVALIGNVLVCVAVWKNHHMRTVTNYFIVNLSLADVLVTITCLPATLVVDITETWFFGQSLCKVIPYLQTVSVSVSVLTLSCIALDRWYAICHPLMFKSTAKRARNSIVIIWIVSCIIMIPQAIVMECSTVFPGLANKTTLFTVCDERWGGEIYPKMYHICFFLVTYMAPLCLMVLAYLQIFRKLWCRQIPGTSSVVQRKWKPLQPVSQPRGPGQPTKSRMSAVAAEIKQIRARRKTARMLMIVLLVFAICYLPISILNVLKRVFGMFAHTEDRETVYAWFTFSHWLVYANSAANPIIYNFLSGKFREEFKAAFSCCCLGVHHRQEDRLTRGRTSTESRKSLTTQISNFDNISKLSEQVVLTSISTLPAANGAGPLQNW
As to the kind of experiment: cell-based.
Turning to `COC1CN(C(=O)N2CC3(CC3)[C@H](NS(=O)(=O)CF)[C@@H]2Cc2cc(F)cc(-c3ccccc3)c2F)C1` [compound 59, N-((6S,7S)-6-((2,5-difluoro-[1,1′-biphenyl]-3-yl)methyl)-5-(3-methoxyazetidine-1-carbonyl)-5-azaspiro[2.4]heptan-7-yl)-1-fluoromethanesulfonamide], the pEC50 is 8.00 to 9.00. As for `N#C[C@]1(C(=O)N2CC3(CC3)[C@H](NS(=O)(=O)CF)[C@@H]2Cc2cccc(-c3cc(F)cc(F)c3)c2F)CCO1` [compound 47, N-((6S,7S)-5-((S)-2-cyanooxetane-2-carbonyl)-6-((2,3′,5′-trifluoro-[1,1′-biphenyl]-3-yl)methyl)-5-azaspiro[2.4]heptan-7-yl)-1-fluoromethanesulfonamide], the figure is 8.00 to 9.00; as for `N#C[C@@]1(C(=O)N2CC3(CC3)[C@H](NS(=O)(=O)CF)[C@@H]2Cc2cccc(-c3cc(F)ccc3F)c2F)CCO1` [compound 79, N-((6S,7S)-5-((R)-2-cyanooxetane-2-carbonyl)-6-((2,2′,5′-trifluoro-[1,1′-biphenyl]-3-yl)methyl)-5-azaspiro[2.4]heptan-7-yl)-1-fluoromethanesulfonamide], 9.00 to 10.20; as for `COC[C@@H](F)C(=O)N1CC2(CC2)[C@H](NS(=O)(=O)C(F)F)[C@@H]1Cc1cccc(-c2cc(F)cc(F)c2)c1F` [compound 66, 1,1-difluoro-N-((6S,7S)-5-((R)-2-fluoro-3-methoxypropanoyl)-6-((2,3′,5′-trifluoro-[1,1′-biphenyl]-3-yl)methyl)-5-azaspiro[2.4]heptan-7-yl)methanesulfonamide], 8.00 to 9.00. As for `N#C[C@]1(C(=O)N2CC3(CC3)[C@H](NS(=O)(=O)CF)[C@@H]2Cc2cccc(-c3cc(F)ccc3F)c2F)CCO1` [compound 80, N-((6S,7S)-5-((S)-2-cyanooxetane-2-carbonyl)-6-((2,2′,5′-trifluoro-[1,1′-biphenyl]-3-yl)methyl)-5-azaspiro[2.4]heptan-7-yl)-1-fluoromethanesulfonamide], the figure is 9.00 to 10.20; as for `C[C@@H](NC(=O)N1CC2(CC2)[C@H](NS(=O)(=O)CF)[C@@H]1Cc1cc(F)cc(-c2ccccc2)c1F)C(F)F` [compound 88, (6S,7S)-6-((2,5-difluoro-[1,1′-biphenyl]-3-yl)methyl)-N-((R)-1,1-difluoropropan-2-yl)-7-((fluoromethyl)sulfonamido)-5-azaspiro[2.4]heptane-5-carboxamide], 8.00 to 9.00. As for `N#C[C@]1(C(=O)N2CC3(CC3)[C@H](NS(=O)(=O)C(F)F)[C@@H]2Cc2cccc(-c3cc(F)cc(F)c3)c2F)CCO1` [compound 48, N-((6S,7S)-5-((S)-2-cyanooxetane-2-carbonyl)-6-((2,3′,5′-trifluoro-[1,1′-biphenyl]-3-yl)methyl)-5-azaspiro[2.4]heptan-7-yl)-1,1-difluoromethanesulfonamide], the figure is 9.00 to 10.20; as for `COCC1(C(=O)N2CC3(CC3)[C@H](NS(C)(=O)=O)[C@@H]2Cc2cccc(-c3ccccc3)c2F)CC1` [compound 26, N-((6S,7S)-6-((2-fluoro-[1,1′-biphenyl]-3-yl)methyl)-5-(1-(methoxymethyl)cyclopropane-1-carbonyl)-5-azaspiro[2.4]heptan-7-yl)methanesulfonamide], 9.00 to 10.20. Turning to `C[C@](O)(C(=O)N1CC2(CC2)[C@H](NS(=O)(=O)CF)[C@@H]1Cc1cc(F)cc(-c2ccccc2)c1F)C(F)F` [compound 84, N-((6S,7S)-5-((S)-3,3-difluoro-2-hydroxy-2-methylpropanoyl)-6-((2,5-difluoro-[1,1′-biphenyl]-3-yl)methyl)-5-azaspiro[2.4]heptan-7-yl)-1-fluoromethanesulfonamide], the pEC50 is 8.00 to 9.00.

Turning to `O=C([C@H](O)CF)N1CC2(CC2)[C@H](NS(=O)(=O)CF)[C@@H]1Cc1cccc(-c2cc(F)cc(F)c2)c1F` [compound 23, 1-fluoro-N-((6S,7S)-5-((S)-3-fluoro-2-hydroxypropanoyl)-6-((2,3′,5′-trifluoro-[1,1′-biphenyl]-3-yl)methyl)-5-azaspiro[2.4]heptan-7-yl)methanesulfonamide], the negative logarithm of the EC50 (pEC50) was 8.00 to 9.00. As for `CC(F)(F)CNC(=O)N1CC2(CC2)[C@H](NS(=O)(=O)CF)[C@@H]1Cc1cccc(-c2cc(F)cc(F)c2)c1F` [compound 38, (6S,7S)-N-(2,2-difluoropropyl)-7-((fluoromethyl)sulfonamido)-6-((2,3′,5′-trifluoro-[1,1′-biphenyl]-3-yl)methyl)-5-azaspiro[2.4]heptane-5-carboxamide], the figure is 8.00 to 9.00; as for `C[C@](O)(CF)C(=O)N1CC2(CC2)[C@H](NS(=O)(=O)C2(F)CC2)[C@@H]1Cc1cccc(-c2ccccc2)c1F` [compound 91, 1-fluoro-N-((6S,7S)-5-((R)-3-fluoro-2-hydroxy-2-methylpropanoyl)-6-((2-fluoro-[1,1′-biphenyl]-3-yl)methyl)-5-azaspiro[2.4]heptan-7-yl)cyclopropane-1-sulfonamide], 9.00 to 10.20; as for `O=C(NCC(F)F)N1CC2(CC2)[C@H](NS(=O)(=O)CF)[C@@H]1Cc1cccc(-c2cc(F)cc(F)c2)c1F` [compound 15, (6S,7S)-N-(2,2-difluoroethyl)-7-((fluoromethyl)sulfonamido)-6-((2,3′,5′-trifluoro-[1,1′-biphenyl]-3-yl)methyl)-5-azaspiro[2.4]heptane-5-carboxamide], 8.00 to 9.00. The compound `C[C@@](O)(CF)C(=O)N1CC2(CC2)[C@H](NS(=O)(=O)CF)[C@@H]1Cc1cccc(-c2cc(F)cc(F)c2)c1F` [compound 83, 1-fluoro-N-((6S,7S)-5-((S)-3-fluoro-2-hydroxy-2-methylpropanoyl)-6-((2,3′,5′-trifluoro-[1,1′-biphenyl]-3-yl)methyl)-5-azaspiro[2.4]heptan-7-yl)methanesulfonamide] had a pEC50 of 8.00 to 9.00. The figure for `N#CC1(C(=O)N2CC3(CC3)[C@H](NS(=O)(=O)CF)[C@@H]2Cc2cccc(-c3ccccc3)c2F)CC1` [compound 5, N-((6S,7S)-5-(1-cyanocyclopropane-1-carbonyl)-6-((2-fluoro-[1,1′-biphenyl]-3-yl)methyl)-5-azaspiro[2.4]heptan-7-yl)-1-fluoromethanesulfonamide] is 9.00 to 10.20; for `N#C[C@]1(C(=O)N2CC3(CC3)[C@H](NS(=O)(=O)C(F)F)[C@@H]2Cc2cccc(-c3cccc(F)c3)c2F)CCO1` [compound 53, N-((6S,7S)-5-((S)-2-cyanooxetane-2-carbonyl)-6-((2,3′-difluoro-[1,1′-biphenyl]-3-yl)methyl)-5-azaspiro[2.4]heptan-7-yl)-1,1-difluoromethanesulfonamide] it is 8.00 to 9.00. For the compound `CO[C@@H](C)C(=O)N1CC2(CC2)[C@H](NS(=O)(=O)CF)[C@@H]1Cc1cccc(-c2cc(F)cc(F)c2)c1F` [compound 69, 1-fluoro-N-((6S,7S)-5-((S)-2-methoxypropanoyl)-6-((2,3′,5′-trifluoro-[1,1′-biphenyl]-3-yl)methyl)-5-azaspiro[2.4]heptan-7-yl)methanesulfonamide], the pEC50 is 9.00 to 10.20. Consider `C[C@@H](F)C(=O)N1CC2(CC2)[C@H](NS(=O)(=O)C(F)F)[C@@H]1Cc1cccc(-c2cc(F)cc(F)c2)c1F` [compound 31, 1,1-difluoro-N-((6S,7S)-5-((R)-2-fluoropropanoyl)-6-((2,3′,5′-trifluoro-[1,1′-biphenyl]-3-yl)methyl)-5-azaspiro[2.4]heptan-7-yl)methanesulfonamide], for which the pEC50 is 8.00 to 9.00.
